Measurements taken from ChEMBL document CHEMBL3351479, “Novel acylureidoindolin-2-one derivatives as dual Aurora B/FLT3 inhibitors for the treatment of acute myeloid leukemia” (Eur J Med Chem, 2014).

Legend:
Aurora kinase B [1] = biological target: T1, Aurora kinase B (Homo sapiens, UniProt Q96GD4); test: Inhibition of Aurora B (unknown origin) using HLRRASLG substrate
[2] = biological target: T2, Receptor-type tyrosine-protein kinase FLT3 (Homo sapiens, UniProt P36888); test: Inhibition of FLT3 (unknown origin) using EAIYAAPFAKKK substrate
T2 sequence (P36888 whole entry): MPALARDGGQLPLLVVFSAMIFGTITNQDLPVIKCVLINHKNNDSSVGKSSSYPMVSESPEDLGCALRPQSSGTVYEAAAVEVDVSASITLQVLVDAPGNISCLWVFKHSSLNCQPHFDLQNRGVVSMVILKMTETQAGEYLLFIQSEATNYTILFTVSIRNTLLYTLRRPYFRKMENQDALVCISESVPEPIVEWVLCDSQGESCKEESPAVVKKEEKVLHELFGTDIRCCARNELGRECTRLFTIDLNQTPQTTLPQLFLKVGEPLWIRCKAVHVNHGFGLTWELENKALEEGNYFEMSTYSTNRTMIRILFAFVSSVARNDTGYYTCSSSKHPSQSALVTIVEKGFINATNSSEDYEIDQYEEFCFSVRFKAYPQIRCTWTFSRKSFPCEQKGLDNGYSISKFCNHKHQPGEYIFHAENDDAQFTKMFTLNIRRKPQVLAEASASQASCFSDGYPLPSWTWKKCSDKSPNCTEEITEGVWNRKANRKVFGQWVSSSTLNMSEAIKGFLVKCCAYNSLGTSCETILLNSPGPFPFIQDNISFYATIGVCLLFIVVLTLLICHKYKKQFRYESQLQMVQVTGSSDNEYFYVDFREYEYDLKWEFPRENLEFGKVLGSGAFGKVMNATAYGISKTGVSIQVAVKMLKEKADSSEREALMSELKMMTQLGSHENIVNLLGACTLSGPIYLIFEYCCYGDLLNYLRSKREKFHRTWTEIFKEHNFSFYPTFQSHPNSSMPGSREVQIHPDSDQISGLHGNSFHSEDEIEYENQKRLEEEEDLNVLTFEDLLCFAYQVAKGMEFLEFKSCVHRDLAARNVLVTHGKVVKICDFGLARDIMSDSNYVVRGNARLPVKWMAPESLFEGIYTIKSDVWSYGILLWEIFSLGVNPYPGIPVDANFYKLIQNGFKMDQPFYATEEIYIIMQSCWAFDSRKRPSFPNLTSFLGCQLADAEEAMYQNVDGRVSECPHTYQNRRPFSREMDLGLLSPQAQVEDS

MV4-11 [3] = test: Cytotoxicity against human MV4-11 cells assessed as cell viability after 48 hrs by MTT assay; format: functional, cell-based
MOLM-13 [4] = test: Cytotoxicity against human MOLM13 cells assessed as cell viability after 48 hrs by MTT assay; format: functional, cell-based; details: MOLM-13, 48 h
THP-1 [5] = test: Cytotoxicity against human THP1 cells assessed as cell viability after 48 hrs by MTT assay; format: functional, cell-based
[6] = Cytotoxicity against human HL60 cells assessed as cell viability after 48 hrs by MTT assay; format: functional, cell-based; details: HL-60, 48 h
MV4-11 [7] = test: Cytotoxicity against human MV4-11 cells assessed as cell viability at 1 uM after 48 hrs by MTT assay; format: functional; details: MV4-11, 48 h, read-out: Activity
MOLM-13 [8] = test: Cytotoxicity against human MOLM13 cells assessed as cell viability at 1 uM after 48 hrs by MTT assay; format: functional; details: MOLM-13, 48 h, read-out: Activity
THP-1 [9] = test: Cytotoxicity against human THP1 cells assessed as cell viability at 1 uM after 48 hrs by MTT assay; format: functional; details: THP-1, 48 h, read-out: Activity
[10] = Cytotoxicity against human HL60 cells assessed as cell viability at 1 uM after 48 hrs by MTT assay; format: functional; details: HL-60, 48 h, read-out: Activity
[11] = Ratio of solubility in PBS to solubility in DMSO; format: physicochemical
[12] = Permeability coefficient of the compound at pH 7.4 by PAMPA-GIT assay; format: ADME; details: read-out: Peff
[13] = biological target: Platelet-derived growth factor receptor alpha (Homo sapiens) (UniProt P16234); test: Inhibition of PDGFRalpha (unknown origin) at 1 uM
Chain of Platelet-derived growth factor receptor alpha (Homo sapiens) (P16234 whole entry): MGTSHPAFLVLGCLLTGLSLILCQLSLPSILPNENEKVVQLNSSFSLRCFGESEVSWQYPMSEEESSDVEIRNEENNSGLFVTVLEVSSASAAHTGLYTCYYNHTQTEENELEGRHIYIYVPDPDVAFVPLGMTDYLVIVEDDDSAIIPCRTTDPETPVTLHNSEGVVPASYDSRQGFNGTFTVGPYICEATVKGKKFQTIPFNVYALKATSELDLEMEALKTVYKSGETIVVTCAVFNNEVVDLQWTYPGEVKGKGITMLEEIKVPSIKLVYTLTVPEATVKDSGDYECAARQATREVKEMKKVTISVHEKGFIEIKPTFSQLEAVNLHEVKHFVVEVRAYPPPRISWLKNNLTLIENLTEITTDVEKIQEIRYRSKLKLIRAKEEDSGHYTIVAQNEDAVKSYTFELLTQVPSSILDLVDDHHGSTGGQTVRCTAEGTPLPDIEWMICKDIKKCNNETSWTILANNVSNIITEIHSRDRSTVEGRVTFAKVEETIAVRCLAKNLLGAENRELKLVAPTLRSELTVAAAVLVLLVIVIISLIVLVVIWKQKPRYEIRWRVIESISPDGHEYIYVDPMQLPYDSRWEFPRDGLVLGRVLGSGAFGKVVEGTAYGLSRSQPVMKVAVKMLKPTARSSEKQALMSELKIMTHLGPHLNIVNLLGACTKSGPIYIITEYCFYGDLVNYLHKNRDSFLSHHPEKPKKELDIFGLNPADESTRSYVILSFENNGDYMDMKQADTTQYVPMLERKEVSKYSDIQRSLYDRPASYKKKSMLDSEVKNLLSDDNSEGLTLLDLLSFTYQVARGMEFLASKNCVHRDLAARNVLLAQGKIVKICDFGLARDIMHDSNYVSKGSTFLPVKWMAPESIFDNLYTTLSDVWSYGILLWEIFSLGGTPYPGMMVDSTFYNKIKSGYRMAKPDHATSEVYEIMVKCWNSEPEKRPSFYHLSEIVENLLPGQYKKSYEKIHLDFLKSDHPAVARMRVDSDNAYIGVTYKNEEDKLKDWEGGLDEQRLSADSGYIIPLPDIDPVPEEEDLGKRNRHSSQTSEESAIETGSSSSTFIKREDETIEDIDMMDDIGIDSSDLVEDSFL

[14] = biological target: Platelet-derived growth factor receptor beta (Homo sapiens) (UniProt P09619); test: Inhibition of PDGFRbeta (unknown origin) at 1 uM
Chain of Platelet-derived growth factor receptor beta (Homo sapiens) (P09619 whole entry): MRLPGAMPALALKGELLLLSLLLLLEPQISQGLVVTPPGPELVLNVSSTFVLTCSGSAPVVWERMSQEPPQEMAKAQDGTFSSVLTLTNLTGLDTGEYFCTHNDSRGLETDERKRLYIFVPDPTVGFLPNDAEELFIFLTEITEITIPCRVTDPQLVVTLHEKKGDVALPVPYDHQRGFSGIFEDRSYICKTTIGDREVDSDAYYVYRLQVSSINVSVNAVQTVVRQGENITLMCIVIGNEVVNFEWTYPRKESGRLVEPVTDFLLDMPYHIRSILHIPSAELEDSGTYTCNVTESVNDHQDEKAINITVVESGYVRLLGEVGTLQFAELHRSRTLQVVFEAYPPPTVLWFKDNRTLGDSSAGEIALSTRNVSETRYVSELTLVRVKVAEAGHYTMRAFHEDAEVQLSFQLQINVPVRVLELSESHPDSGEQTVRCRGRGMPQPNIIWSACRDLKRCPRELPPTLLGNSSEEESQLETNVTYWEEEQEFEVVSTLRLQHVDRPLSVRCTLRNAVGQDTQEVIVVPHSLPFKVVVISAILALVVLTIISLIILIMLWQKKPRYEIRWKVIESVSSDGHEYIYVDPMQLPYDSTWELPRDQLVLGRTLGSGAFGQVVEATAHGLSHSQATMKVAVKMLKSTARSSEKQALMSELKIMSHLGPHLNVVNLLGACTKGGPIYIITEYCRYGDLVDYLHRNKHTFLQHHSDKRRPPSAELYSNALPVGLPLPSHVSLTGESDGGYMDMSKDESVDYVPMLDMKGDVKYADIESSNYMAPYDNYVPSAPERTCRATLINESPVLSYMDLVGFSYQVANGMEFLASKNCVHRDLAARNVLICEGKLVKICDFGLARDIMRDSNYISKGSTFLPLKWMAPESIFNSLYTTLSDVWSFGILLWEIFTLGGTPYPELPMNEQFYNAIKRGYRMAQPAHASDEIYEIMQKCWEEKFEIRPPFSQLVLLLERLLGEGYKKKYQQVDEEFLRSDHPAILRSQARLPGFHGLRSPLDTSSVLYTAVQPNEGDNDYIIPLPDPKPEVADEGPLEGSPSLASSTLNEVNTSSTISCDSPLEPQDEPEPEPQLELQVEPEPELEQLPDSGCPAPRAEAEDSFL

Aurora kinase B [15] = biological target: T1, Aurora kinase B; test: Inhibition of Aurora B (unknown origin) using HLRRASLG substrate at 1 uM
[16] = biological target: Aurora kinase A (Homo sapiens) (UniProt O14965); test: Inhibition of Aurora A (unknown origin) at 1 uM
Chain of Aurora kinase A (Homo sapiens) (O14965 whole entry): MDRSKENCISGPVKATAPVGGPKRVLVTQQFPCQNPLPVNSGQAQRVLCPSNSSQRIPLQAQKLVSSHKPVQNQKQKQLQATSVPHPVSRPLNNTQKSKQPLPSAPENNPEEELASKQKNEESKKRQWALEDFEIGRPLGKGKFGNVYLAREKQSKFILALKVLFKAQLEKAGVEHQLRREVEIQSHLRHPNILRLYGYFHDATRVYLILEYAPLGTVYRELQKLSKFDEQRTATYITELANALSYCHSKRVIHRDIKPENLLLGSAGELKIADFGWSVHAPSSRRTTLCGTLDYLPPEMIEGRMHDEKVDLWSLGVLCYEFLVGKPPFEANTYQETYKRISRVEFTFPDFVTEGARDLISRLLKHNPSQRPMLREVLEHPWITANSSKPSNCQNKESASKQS

[17] = biological target: Aurora kinase C (Homo sapiens) (UniProt Q9UQB9); test: Inhibition of Aurora C (unknown origin) at 1 uM
Chain of Aurora kinase C (Homo sapiens) (Q9UQB9 whole entry): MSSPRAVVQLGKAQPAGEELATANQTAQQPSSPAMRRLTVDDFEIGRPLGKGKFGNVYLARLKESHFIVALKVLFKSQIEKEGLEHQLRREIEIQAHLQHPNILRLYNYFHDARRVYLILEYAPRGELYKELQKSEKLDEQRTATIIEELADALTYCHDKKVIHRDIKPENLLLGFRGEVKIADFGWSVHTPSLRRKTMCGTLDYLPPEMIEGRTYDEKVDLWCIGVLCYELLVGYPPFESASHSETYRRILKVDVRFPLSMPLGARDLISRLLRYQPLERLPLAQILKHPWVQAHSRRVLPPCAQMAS

[18] = biological target: Receptor-type tyrosine-protein kinase FLT3 (Homo sapiens) (UniProt P36888); test: Inhibition of FLT3 (unknown origin) using EAIYAAPFAKKK substrate at 1 uM

T1 sequence (Q96GD4 whole entry): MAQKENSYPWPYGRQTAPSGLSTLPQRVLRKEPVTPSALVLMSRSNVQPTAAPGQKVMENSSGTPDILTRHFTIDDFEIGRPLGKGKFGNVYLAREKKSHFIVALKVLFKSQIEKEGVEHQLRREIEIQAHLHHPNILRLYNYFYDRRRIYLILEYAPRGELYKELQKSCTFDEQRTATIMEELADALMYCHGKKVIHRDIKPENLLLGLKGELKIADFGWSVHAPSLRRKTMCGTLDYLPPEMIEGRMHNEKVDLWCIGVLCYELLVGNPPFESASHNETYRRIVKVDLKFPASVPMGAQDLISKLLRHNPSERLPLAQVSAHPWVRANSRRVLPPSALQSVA

| IC50 (Aurora kinase B [1]) [nM] | IC50 [2] [nM] | Ratio [11] | Papp [12] [×10⁻⁶ cm/s] | inhibition [13] [%] | inhibition [14] [%] | inhibition (Aurora kinase B [15]) [%] | inhibition [16] [%] | inhibition [17] [%] | inhibition [18] [%] | SMILES | IC50 (MV4-11 [3]; Homo sapiens, MV4-11, 48 h) [nM] | IC50 (MOLM-13 [4]) [nM] | IC50 (THP-1 [5]; Homo sapiens, THP-1, 48 h) [nM] | IC50 [6] [nM] | viability at 1 µM (MV4-11 [7]) [%] | viability at 1 µM (MOLM-13 [8]) [%] | viability at 1 µM (THP-1 [9]) [%] | viability at 1 µM [10] [%] | IC50 (MV4-11 [3]; mv4-11) [nM] | IC50 (THP-1 [5]; thp-1) [nM] |
| --- | --- | --- | --- | --- | --- | --- | --- | --- | --- | --- | --- | --- | --- | --- | --- | --- | --- | --- | --- | --- |
| > 1000 | > 1000 | – | – | – | – | – | – | – | – | CCOC(=O)c1c(C)[nH]c(/C=C2\C(=O)Nc3cc(NC(=O)NC(=O)c4ccc(OC)cc4F)ccc32)c1C | 11.3 | 9.8 | 74 | 13 | – | – | – | – | – | – |
| – | > 1000 | – | – | – | – | 29 | – | – | – | COc1ccc(C(=O)NC(=O)Nc2ccc3c(c2)NC(=O)/C3=C/c2ccccn2)cc1 | > 500 | > 500 | > 500 | > 500 | 60 | 62 | 85 | 80 | – | – |
| – | – | 0.32 | 0.23 | – | – | – | – | – | – | COc1ccc(C(=O)NC(=O)Nc2ccc3c(c2)NC(=O)/C3=C\c2[nH]c(C)c(C(=O)O)c2C)cc1 | 12 | 9 | 78.4 | 15.8 | – | – | – | – | – | – |
| – | – | 0.57 | – | – | – | – | – | – | – | COc1ccc(C(=O)NC(=O)Nc2ccc3c(c2)NC(=O)/C3=C\c2[nH]c(C)c(CCC(=O)O)c2C)cc1 | 5.3 | 5.2 | 52.8 | 6.4 | – | – | – | – | – | – |
| – | – | 0.58 | 2.46 | – | – | – | – | – | – | COc1ccc(C(=O)NC(=O)Nc2cc3c(cc2F)/C(=C/c2[nH]c(C)c(C(=O)O)c2C)C(=O)N3)cc1 | 34.6 | 25.3 | 81.2 | 32.2 | – | – | – | – | – | – |
| – | – | – | – | – | – | 9 | – | – | 19 | COc1ccc(C(=O)NC(=O)Nc2ccc3c(c2)NC(=O)/C3=C/c2ccc(Cl)c(Cl)c2)cc1 | > 500 | > 500 | > 500 | > 500 | 71 | 69 | 68 | 63 | – | – |
| > 1000 | > 1000 | – | – | – | – | – | – | – | – | COc1ccc(C(=O)NC(=O)Nc2ccc3c(c2)NC(=O)/C3=C\c2ccc(C(=O)O)[nH]2)cc1 | > 500 | > 500 | > 500 | > 500 | 62 | 55 | 65 | 65 | – | – |

Further lines, the compound ahead of its results:

| SMILES | IC50 (Aurora kinase B [1]) [nM] | IC50 [2] [nM] | Ratio [11] | Papp [12] [×10⁻⁶ cm/s] | inhibition [13] [%] | inhibition [14] [%] | inhibition (Aurora kinase B [15]) [%] | inhibition [16] [%] | inhibition [17] [%] | inhibition [18] [%] | IC50 (MV4-11 [3]; Homo sapiens, MV4-11, 48 h) [nM] | IC50 (MOLM-13 [4]) [nM] | IC50 (THP-1 [5]; Homo sapiens, THP-1, 48 h) [nM] | IC50 [6] [nM] | viability at 1 µM (MV4-11 [7]) [%] | viability at 1 µM (MOLM-13 [8]) [%] | viability at 1 µM (THP-1 [9]) [%] | viability at 1 µM [10] [%] | IC50 (MV4-11 [3]; mv4-11) [nM] | IC50 (THP-1 [5]; thp-1) [nM] |
| --- | --- | --- | --- | --- | --- | --- | --- | --- | --- | --- | --- | --- | --- | --- | --- | --- | --- | --- | --- | --- |
| COc1ccc(C(=O)NC(=O)Nc2ccc3c(c2)NC(=O)/C3=C\c2[nH]c(C)c(-c3ccccc3)c2C)cc1 | > 1000 | – | – | – | – | – | – | – | – | – | > 500 | > 500 | > 500 | > 500 | 51 | 51 | 73 | 65 | – | – |
| COc1ccc(C(=O)NC(=O)Nc2ccc3c(c2)NC(=O)/C3=C\c2[nH]c(C)c(C(=O)O)c2C)c(F)c1 | – | – | 0.58 | 2.49 | – | – | – | – | – | – | 5.3 | 5.2 | 79.5 | 6.4 | – | – | – | – | – | – |
| COc1ccc(C(=O)NC(=O)Nc2ccc3c(c2)NC(=O)/C3=C\c2ccc[nH]2)cc1 | – | – | 0.37 | 0.67 | 30 | 35 | 94 | 11 | 17 | – | 29.3 | 18.1 | 68.4 | 29.5 | – | – | – | – | – | – |
| COc1ccc(C(=O)NC(=O)Nc2ccc3c(c2)NC(=O)/C3=C/c2cccs2)cc1 | 21.5 | > 1000 | – | – | – | – | – | – | – | – | 292 | > 500 | 375 | 300 | – | – | – | – | – | – |
| COc1ccc(C(=O)NC(=O)Nc2ccc3c(c2)NC(=O)/C3=C/c2ccc(Cl)cc2)cc1 | – | – | – | – | – | – | 13 | – | – | 6 | > 500 | > 500 | > 500 | > 500 | 97 | 101 | 83 | 77 | – | – |
| COc1ccc(C(=O)NC(=O)Nc2ccc3c(c2)NC(=O)/C3=C\c2[nH]c(C)c(C(=O)NCCN3CCCC3)c2C)c(F)c1.CS(=O)(=O)O | – | – | 0.97 | – | – | – | – | – | – | – | – | – | – | – | – | – | – | – | 2 | 32.2 |
| COc1ccc(C(=O)NC(=O)Nc2ccc3c(c2)NC(=O)/C3=C/c2cccc(C(=O)O)c2)cc1 | – | – | – | – | – | – | 73 | – | – | 21 | > 500 | 291 | > 500 | > 500 | 57 | 53 | 71 | 59 | – | – |
